Assay [1] concerns the target T1, PeaTAR1B (PeaTAR1B-HA) (Periplaneta americana, UniProt A0A239QQ38).
T1 construct: stably expressed in HEK 293 flpTM cells
T1 sequence (A0A239QQ38 1-481): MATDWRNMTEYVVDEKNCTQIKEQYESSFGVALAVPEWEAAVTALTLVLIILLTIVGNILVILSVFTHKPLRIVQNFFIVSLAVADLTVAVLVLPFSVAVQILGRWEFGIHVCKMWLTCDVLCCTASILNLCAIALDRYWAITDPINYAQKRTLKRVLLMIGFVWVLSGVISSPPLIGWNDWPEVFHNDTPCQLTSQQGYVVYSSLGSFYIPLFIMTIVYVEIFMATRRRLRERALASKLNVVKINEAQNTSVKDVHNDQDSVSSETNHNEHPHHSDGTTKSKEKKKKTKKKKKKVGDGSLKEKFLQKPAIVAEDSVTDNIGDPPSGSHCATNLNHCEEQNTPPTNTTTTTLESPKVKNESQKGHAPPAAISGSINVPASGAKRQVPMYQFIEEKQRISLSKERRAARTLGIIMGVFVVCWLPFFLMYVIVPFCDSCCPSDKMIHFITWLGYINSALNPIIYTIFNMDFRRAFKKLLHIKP
The assay is described as follows: block of tyramine-induced attenuation of NKH 477-stimulated cAMP, CNG channel / Fluo-4 fluorescence in HEK […] flpTM cells. Format: cell-based.

Assay [2] addresses T1, PeaTAR1B (PeaTAR1B-HA). The assay is described as follows: attenuation of NKH 477-stimulated cAMP, CNG channel / Fluo-4 Ca2+ fluorescence in HEK […] flpTM cells. Format: cell-based.

IC50 and EC50 data for 2 compounds are collected here from publication PMC5713249, “PeaTAR1B: Characterization of a Second Type 1 Tyramine Receptor of the American Cockroach, Periplaneta americana” (International Journal of Molecular Sciences, 2017).

Molecules are shown by their SMILES.

For `COC(=O)[C@@H]1[C@H]2C[C@H]3c4[nH]c5ccccc5c4CCN3C[C@@H]2CC[C@@H]1O` [yohimbine], the IC50 in assay [1] came out at 740 nM.

`NCCc1ccc(O)cc1` [tyramine]: the EC50 in assay [2] is about 6.3 nM.
